The results in this text go back to US6001597A, “Compositions and methods for producing heterologous polypeptides in Pichia methanolica” (ZymoGenetics, Inc., priority 1998, dated 1999).

The test system of the test is P. mathanolica cells (strain CBS6515, UV-mutagenized). In words: Nystatin enrichment for auxotrophic mutants: titering of colony forming units, nystatin-treated versus control cells. The conditions noted are these: 1 mg nystatin added to remainder of 500 ml culture in minimal broth with 5 g/L ammonium sulfate, incubated one additional hour; versus control cells without nystatin. The format is cell-based, Pichia methanolica. The method, then: The cells are then transferred to a culture medium deficient in assimilable nitrogen so that cellular nitrogen stores are depleted. By "deficient in assimilable nitrogen" it is meant that the medium lacks an amount of nitrogen sufficient to support growth of the cells. Depletion of cellular nitrogen stores will generally require about 12 to 24 hours of incubation, with 16 hours being sufficient under common conditions. Following depletion of nitrogen stores, the cells are cultured in a defined culture medium comprising an inorganic nitrogen source and an amount of an antifungal antibiotic sufficient to kill growing P. mathanolica cells. The antibiotic nystatin (mycostatin) is particularly preferred. Preferred inorganic nitrogen sources are those comprising ammonium ions, such as ammonium sulfate. In general, the medium will contain 10-200 mM ammonium, preferably about 60 mM ammonium. Nystatin is included at a concentration of 0.1 to 100 mg/l, preferably 0.5 to 20 mg/L, more preferably about 2 mg/L ([…]). […] Those skilled in the art will recognize that the actual antibiotic concentration and exposure time required to kill prototrophic cells can be readily determined empirically,and certain adjustments may be necessary to compensate for variations in specific activity between individual batches of antibiotic. […]

For `C[C@@H]1[C@H](O)[C@@H](C)/C=C/C=C/CC/C=C/C=C/C=C/C=C/C(O[C@H]2O[C@H](C)[C@@H](O)[C@H](N)[C@@H]2O)CC2O[C@](O)(CC(O)C(O)CCC(O)CC(O)CC(O)CC(=O)O[C@H]1C)CC(O)C2C(=O)O` (stereo partly shown) [nystatin], the “decrease in the number of viable cells (colony forming units), factor” value was 10^4.
